pEC50: −log10 of the molar value.

The target in this test is human activated kallikrein enzyme (Homo sapiens, UniProt P03952). Put plainly: Inhibition of human activated plasma kallikrein, fluorogenic PFR-AMC substrate, 500 pM enzyme format. The format is biochemical. As to conditions: 500 pM activated kallikrein; 300 μM PFR-AMC; 30 min preincubation; 10 min room temperature; pH 7.5; read-out: Primary Dose Response Assay: Average EC50. As for the experimental part: Compounds were evaluated for inhibition of the human activated kallikrein enzyme in two formats of an assay employing a fluorogenic peptide substrate. In one assay format, the concentrations of reagents were as follows: 20 mM Tris pH 7.5, 1 mM EDTA, 150 mM sodium chloride, 0.1% PEG-400, 0.1% Triton X-100, 500 pM activated kallikrein enzyme, 300 μM Pro-Phe-Arg-7-amido-4-methylcoumarin (PFR-AMC) substrate. Prior to reaction initiation with substrate, enzyme and inhibitors were preincubated for 30 min at room temperature. After initiation with substrate, reactions were incubated for 10 min at room temperature and fluorescence emission at 460 nm from 380 nm excitation measured with a microplate reader. In another assay format, the concentrations of reagents were as follows: 20 mM Tris pH 7.5, 1 mM EDTA, 150 mM sodium chloride, 0.1% PEG-400, 0.1% Triton X-100, 5 pM activated kallikrein enzyme, 300 uM PFR-AMC substrate. Prior to reaction initiation with substrate, enzyme and inhibitors were preincubated for 30 min at room temperature. After initiation with substrate, reactions were incubated for 18 hr at room temperature and fluorescence emission at 460 nm from 380 nm excitation measured with a microplate reader.
Sequence of human activated kallikrein enzyme (P03952 391-638 limits assumed): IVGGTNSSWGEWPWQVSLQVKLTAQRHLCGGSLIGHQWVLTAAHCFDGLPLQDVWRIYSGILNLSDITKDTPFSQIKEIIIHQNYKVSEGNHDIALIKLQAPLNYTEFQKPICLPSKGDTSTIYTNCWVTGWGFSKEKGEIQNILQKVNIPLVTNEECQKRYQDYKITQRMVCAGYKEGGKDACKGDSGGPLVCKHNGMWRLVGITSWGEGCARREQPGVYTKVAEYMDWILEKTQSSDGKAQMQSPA
Sequence of human activated kallikrein enzyme (P03952 20-390 partner limits assumed): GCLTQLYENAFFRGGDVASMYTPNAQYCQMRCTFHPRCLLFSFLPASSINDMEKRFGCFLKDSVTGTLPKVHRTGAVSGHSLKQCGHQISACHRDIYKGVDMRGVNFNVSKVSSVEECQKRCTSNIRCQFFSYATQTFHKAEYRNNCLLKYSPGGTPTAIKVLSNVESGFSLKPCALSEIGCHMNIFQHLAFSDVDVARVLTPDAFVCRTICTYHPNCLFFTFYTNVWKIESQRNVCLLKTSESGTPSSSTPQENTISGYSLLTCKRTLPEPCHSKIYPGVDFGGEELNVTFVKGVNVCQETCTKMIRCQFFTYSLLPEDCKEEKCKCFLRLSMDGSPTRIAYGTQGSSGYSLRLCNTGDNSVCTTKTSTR
Table 35 provides the results of the assay in the format with 500 pM activated kallikrein assay.
`CCOC(=O)[C@H]1[C@@H]2CN(C(=O)Cc3ccc(Cn4cc(C(=O)NCc5c(C)cc6c(N)nccc6c5C)cn4)cc3)C[C@@H]21` [Example 212, ethyl (1R,SS,6r)-3-(2-(4-((4-(((1-amino-5,7-dimethylisoquinolin-6-y1)methyl)carbamoyl)-1H-pyrazol-1-yl)methyl)phenyl)acetyl)-3-azabicyclo[3.1.0]hexane-6-carboxylate]: the pEC50 was 7.00 to 8.00.
As for `Cc1cc2c(N)nccc2c(C)c1CNc1cc(NCc2ccc(OCC(=O)N3CCCCC3)cc2)ncn1` [Example 346, 2-(4-(((6-(((1-amino-5,7-dimethylisoquinolin-6-yl)methyl)amino)pyrimidin-4-yl)amino)methyl)phenoxy)-1-(piperidin-1-yl)ethan-1-one], the figure is 8.00 to 9.00; as for `Cc1cc2c(N)nccc2c(C)c1CNC(=O)c1cnn(Cc2ccc3c(-n4ccccc4=O)cccc3c2)c1` [Example 125, N-((1-amino-5,7-dimethylisoquinolin-6-yl)methyl)-1-((5-(2-oxopyridin-1(2H)-yl)naphthalen-2-yl)methyl)-1H-pyrazole-4-carboxamide], greater than 9.00; as for `Cc1cc2c(N)nccc2c(C)c1CNC(=O)c1cnn(Cc2ccc(CC(=O)N(C)C3CC3)cc2)c1` [Example 224, N-((1-amino-5,7-dimethylisoquinolin-6-yl)methyl)-1-(4-(2-(cyclopropyl(methyl)amino)-2-oxoethyl)benzyl)-1H-pyrazole-4-carboxamide], greater than 9.00.
In the case of `Cc1cc2c(N)nccc2c(C)c1CNc1cc(NCc2ccc(C(F)(F)n3cccn3)cc2)ncn1` [Example 382, N^4-((1-amino-5,7-dimethylisoquinolin-6-yl)methyl)-N^6-(4-(difluoro(1H-pyrazol-1-yl)methyl)benzyl)pyrimidine-4,6-diamine] it was 8.00 to 9.00.
As for `Cc1cc2c(N)nccc2c(C)c1CNC(=O)c1cnn(Cc2ccc(CC(=O)N3C[C@@H]4[C@@H](CO)[C@@H]4C3)cc2)c1` [Example 208, N-((1-amino-5,7-dimethylisoquinolin-6-yl)methyl)-1-(4-(2-((1R,5S,6r)-6-(hydroxymethyl)-3-azabicyclo[3.1.0]hexan-3-y1)-2-oxoethyl)benzyl)-1H-pyrazole-4-carboxamide], the figure is 7.00 to 8.00; as for `Cc1cc2c(N)nccc2c(C)c1CNc1cc(NCc2cc3ccccc3cn2)ncn1` [Example 315, N^4-((1-amino-5,7-dimethylisoquinolin-6-yl)methyl)-N^6-(isoquinolin-3-ylmethyl)pyrimidine-4,6-diamine], 8.00 to 9.00.
With `Cc1cc2c(N)nccc2c(C)c1CNC(=O)c1cnn(Cc2ccc(Cc3ccccn3)cc2)c1` [Example 165, N-((1-amino-5,7-dimethylisoquinolin-6-y1)methyl)-1-(4-(pyridin-2-ylmethyl)benzyl)-1H-pyrazole-4-carboxamide], the pEC50 is greater than 9.00.
As for `Cc1cc2c(N)nccc2c(C)c1CNC(=O)c1cnn(Cc2cccnc2)c1` [Example 88, N-((1-amino-5,7-dimethylisoquinolin-6-yl)methyl)-1-(pyridin-3-ylmethyl)-1H-pyrazole-4-carboxamide], the pEC50 was 7.00 to 8.00.
As to `Cc1cc2c(N)nccc2c(C)c1CNc1cc(OCc2ccc(Cn3ccccc3=O)cc2)c(Cl)cn1` [Example I-456, 1-(4-(((2-(((1-amino-5,7-dimethylisoquinolin-6-yl)methyl)amino)-5-chloropyridin-4-yl)oxy)methyl)benzyl)pyridin-2(1H)-one], the negative logarithm of the EC50 (pEC50) is 8.00 to 9.00.
In the case of `Cc1cc2c(N)nccc2c(C)c1CNC(=O)c1cnn([C@@H](C)c2ccccc2)c1` [Example 34, (S)-N-((1-amino-5,7-dimethylisoquinolin-6-yl)methyl)-1-(1-phenylethyl)-1H-pyrazole-4-carboxamide] it was 6.00 to 7.00.
Turning to `Cc1ccc2ncc(COc3cnnc(NCc4c(C)cc5c(N)nccc5c4C)c3)cc2c1` [Example 408, 5,7-dimethyl-6-(((5-((6-methylquinolin-3-yl)methoxy)pyridazin-3-yl)amino)methyl)isoquinolin-1-amine], the negative-log EC50 (pEC50) was greater than 9.00.
In the case of `Cc1cc2c(N)nccc2c(C)c1CNc1nccc(OCc2ccc(Cn3ccccc3=O)cc2)n1` [Example I-478, 1-(4-(((2-(((1-amino-5,7-dimethylisoquinolin-6-yl)methyl)amino)pyrimidin-4-yl)oxy)methyl)benzyl)pyridin-2(1H)-one], the pEC50 is 8.00 to 9.00.
Regarding `Cc1cc2c(N)nccc2c(C)c1CNc1cc(OCc2ccc3ncccc3c2)ncn1` [Example 374, 5,7-dimethyl-6-(((6-(quinolin-6-ylmethoxy)pyrimidin-4-yl)amino)methyl)isoquinolin-1-amine], the pEC50 was 7.00 to 8.00.
As for `Cc1cnc2ccc(C(C)Oc3cnnc(NCc4c(C)cc5c(N)nccc5c4C)c3)cc2c1` (stereo not shown) [Example 419, 5,7-dimethyl-6-(((5-(1-(3-methylquinolin-6-yl)ethoxy)pyridazin-3-yl)amino)methyl)isoquinolin-1-amine], the figure is greater than 9.00.
In the case of `Cc1cc2c(N)nccc2c(C)c1CNc1cc(OCc2cn3cc(C4CC4)cnc3n2)nc(C(=O)O)n1` [Example 488, 4-(((1-amino-5,7-dimethylisoquinolin-6-yl)methyl)amino)-6-((6-cyclopropylimidazo[1,2-a]pyrimidin-2-yl)methoxy)pyrimidine-2-carboxylic acid] it was greater than 9.00; in that of `Cc1cc2c(N)nccc2c(C)c1CNc1cc(OCc2cn3cc(C(F)(F)F)ccc3n2)cnn1` [Example 424, 5,7-dimethyl-6-(((5-((6-(trifluoromethyl)imidazo[1,2-a]pyridin-2-yl)methoxy)pyridazin-3-yl)amino)methyl)isoquinolin-1-amine], greater than 9.00.
In the case of `Cc1cc2c(N)nccc2c(C)c1CNc1ccnc(OCc2cn3cc(C4CC4)ccc3n2)c1` [Example 279, 6-(((2-((6-cyclopropylimidazo[1,2-a]pyridin-2-yl)methoxy)pyridin-4-yl)amino)methyl)-5,7-dimethylisoquinolin-1-amine] it was 8.00 to 9.00; in that of `Cc1cc2c(N)nccc2c(C)c1CNc1cc(OCc2ccc(Cn3cccn3)cc2)c(C(F)(F)F)nn1` [Example 450, 6-(((5-((4-((1H-pyrazol-1-yl)methyl)benzyl)oxy)-6-(trifluoromethyl)pyridazin-3-yl)amino)methyl)-5,7-dimethylisoquinolin-1-amine], 8.00 to 9.00; in that of `Cc1cc2c(Nc3cc(OCc4ccc(CC(=O)N(C)C)cc4)ncn3)nccc2c(C)c1CN` [Example I-467, 2-(4-(((6-((6-(aminomethyl)-5,7-dimethylisoquinolin-1-yl)amino)pyrimidin-4-yl)oxy)methyl)phenyl)-N,N-dimethylacetamide], less than 6.00.
With `Cc1cc2c(N)nccc2c(C)c1CNc1nccc(OCc2cn3cc(C4CC4)ccc3n2)n1` [Example 492, 6-(((4-((6-cyclopropylimidazo[1,2-a]pyridin-2-yl)methoxy)pyrimidin-2-yl)amino)methyl)-5,7-dimethylisoquinolin-1-amine], the pEC50 is 8.00 to 9.00.
In the case of `Cc1cc2c(N)nccc2c(C)c1CNC(=O)c1cn(Cc2ccc(Cn3cccn3)cc2)nc1C(F)(F)F` [Example 185, 1-(4-((1H-pyrazol-1-yl)methyl)benzyl)-N-((1-amino-5,7-dimethylisoquinolin-6-y1)methyl)-3-(trifluoromethyl)-1H-pyrazole-4-carboxamide] it was greater than 9.00; in that of `Cc1cc2c(N)nccc2c(C)c1CNC(=O)c1cnn(Cc2ccc(-n3ccccc3=O)nc2)c1` [Example 46, N-((1-amino-5,7-dimethylisoquinolin-6-yl)methyl)-1-((2-oxo-2H-[1,2'-bipyridin]-5'-yl)methyl)-1H-pyrazole-4-carboxamide], 7.00 to 8.00.
With `Cc1cc2c(N)nccc2c(C)c1CNC(=O)c1cnn(Cc2ccccc2C(F)(F)F)c1` [Example 42, N-((1-amino-5,7-dimethylisoquinolin-6-yl)methyl)-1-(2-(trifluoromethyl)benzyl)-1H-pyrazole-4-carboxamide], the negative logarithm of the EC50 (pEC50) is less than 6.00.
As for `Cc1cc2c(N)nccc2c(C)c1CNc1cc(OCc2cn3ccccc3n2)cnn1` [Example 411, 6-(((5-(imidazo[1,2-a]pyridin-2-ylmethoxy)pyridazin-3-yl)amino)methyl)-5,7-dimethylisoquinolin-1-amine], the figure is 7.00 to 8.00.
As for `Cc1cc2c(N)nccc2c(C)c1CNC(=O)c1cnn(Cc2ccc(CC(=O)N3C[C@@H]4[C@H](C)[C@@H]4C3)cc2)c1` [Example 205, N-((1-amino-5,7-dimethylisoquinolin-6-yl)methyl)-1-(4-(2-((1R,5S,6r)-6-methyl-3-azabicyclo[3.1.0]hexan-3-y1)-2-oxoethyl)benzyl)-1H-pyrazole-4-carboxamide], the pEC50 is greater than 9.00.
In the case of `Cc1cc2c(N)nccc2c(C)c1CNC(=O)c1cnn(Cc2cn3c(C)cccc3n2)c1` [Example 105, N-((1-amino-5,7-dimethylisoquinolin-6-yl)methyl)-1-((5-methylimidazo[1,2-a]pyridin-2-yl)methyl)-1H-pyrazole-4-carboxamide] it was greater than 9.00.
As for `Cc1ccc2nc(C(C)n3cc(C(=O)NCc4c(C)cc5c(N)nccc5c4C)cn3)cn2c1` (stereo not shown) [Example 13, N-((1-amino-5,7-dimethylisoquinolin-6-yl)methyl)-1-(1-(6-methylimidazo[1,2-a]pyridin-2-yl)ethyl)-1H-pyrazole-4-carboxamide], the figure is greater than 9.00.

As a reminder, the pEC50 is −log10 of the EC50, conventionally taken in molar units.
